{
  "source": "patent US9364467B2",
  "about": "(Salix Pharmaceuticals, Ltd, priority 2012, dated 2016)",
  "key": {"S. xylosus": {"test_system": "S. xylosus", "test": "In vitro activity (MIC) against S. xylosus strains"}, "S. haemolyticus": {"test_system": "S. haemolyticus", "test": "In vitro activity (MIC) against S. haemolyticus strains", "details": "Staphylococcus haemolyticus"}, "[1]": {"test_system": "Staphylococcus spp. strains", "test": "In vitro activity (MIC) against Staphylococcus spp. strains"}, "[2]": {"test_system": "Enterobacteriaceae spp. strains", "test": "In vitro activity (MIC) against Enterobacteriaceae spp. strains"}},
  "note": "Where two headings read alike, the source gives them in different places.",
  "data": [
    {"smiles": "CO[C@H]1/C=C/O[C@@]2(C)Oc3c(C)c(O)c4c(O)c(c5c(nc6cc(C)ccn65)c4c3C2=O)NC(=O)/C(C)=C\\C=C\\[C@H](C)[C@H](O)[C@@H](C)[C@@H](O)[C@@H](C)[C@H](OC(C)=O)[C@@H]1C", "note": "[Rifaximin, reference compound]", "values": [
      {"measurement": "MIC", "setting": "S. xylosus; Staphylococcus xylosus", "value": 0.5, "unit": "µg/mL"},
      {"measurement": "MIC", "setting": "S. xylosus; strain S. xylosus 346", "value": 0.5, "unit": "µg/mL"},
      {"measurement": "MIC", "setting": "S. haemolyticus; strain S. haemolyticus 243", "value": 0.06, "unit": "µg/mL"},
      {"measurement": "MIC", "setting": "S. haemolyticus; strain S. haemolyticus 276", "value": 0.12, "unit": "µg/mL"},
      {"measurement": "MIC", "setting": "S. haemolyticus; strain S. haemolyticus 955", "value": 0.12, "unit": "µg/mL"},
      {"measurement": "MIC", "setting": "S. haemolyticus; strain S. haemolyticus 982", "value": 0.06, "unit": "µg/mL"},
      {"measurement": "MIC50", "setting": "[1]; Staphylococcus", "value": 0.25, "unit": "µg/mL"},
      {"measurement": "MIC90", "setting": "[1]; Staphylococcus", "value": 1, "unit": "µg/mL"},
      {"measurement": "Range (MIC)", "setting": "[1]; Staphylococcus spp. strains", "value": "0.03 to 1", "unit": "µg/mL"},
      {"measurement": "MIC", "setting": "[1]; Staphylococcus, read-out: Mode (MIC), Staphylococcus spp. strains", "value": 0.5, "unit": "µg/mL"},
      {"measurement": "MIC", "setting": "[1]; Staphylococcus, strain S. spp. 1102", "value": 0.06, "unit": "µg/mL"},
      {"measurement": "MIC", "setting": "[1]; Staphylococcus, strain S. spp. 1187", "value": 0.03, "unit": "µg/mL"},
      {"measurement": "MIC", "setting": "[1]; Staphylococcus, strain S. spp. 1195", "value": 0.06, "unit": "µg/mL"},
      {"measurement": "MIC", "setting": "[1]; Staphylococcus, strain S. spp. 1256", "value": 0.12, "unit": "µg/mL"},
      {"measurement": "MIC", "setting": "[1]; Staphylococcus, strain S. spp. 1312", "value": 0.25, "unit": "µg/mL"},
      {"measurement": "MIC", "setting": "[1]; Staphylococcus, strain S. spp. 1689", "value": 1, "unit": "µg/mL"},
      {"measurement": "MIC", "setting": "[1]; Staphylococcus, strain S. spp. 1745", "value": 0.06, "unit": "µg/mL"},
      {"measurement": "MIC", "setting": "[2]", "value": 32, "unit": "µg/mL"},
      {"measurement": "MIC50", "setting": "[2]", "value": 32, "unit": "µg/mL"},
      {"measurement": "MIC90", "setting": "[2]", "value": 32, "unit": "µg/mL"},
      {"measurement": "MIC", "setting": "[2]; Citrobacter freundii, C. freundii 57", "value": 16, "unit": "µg/mL"},
      {"measurement": "MIC", "setting": "[2]; Citrobacter freundii, C. freundii 58", "value": 32, "unit": "µg/mL"},
      {"measurement": "MIC", "setting": "[2]; Citrobacter freundii, C. freundii 65", "value": 32, "unit": "µg/mL"},
      {"measurement": "MIC", "setting": "[2]; Citrobacter freundii, C. freundii 68", "value": 32, "unit": "µg/mL"},
      {"measurement": "MIC", "setting": "[2]; Citrobacter freundii, C. freundii 69", "value": 32, "unit": "µg/mL"},
      {"measurement": "MIC", "setting": "[2]; Citrobacter freundii, C. freundii 1070", "value": 32, "unit": "µg/mL"},
      {"measurement": "MIC", "setting": "[2]; Citrobacter freundii, C. freundii 1073", "value": 32, "unit": "µg/mL"},
      {"measurement": "MIC", "setting": "[2]; Citrobacter freundii, C. freundii 1075", "value": 32, "unit": "µg/mL"},
      {"measurement": "MIC", "setting": "[2]; Enterobacter cloacae, E. cloacae 1", "value": 32, "unit": "µg/mL"},
      {"measurement": "MIC", "setting": "[2]; Enterobacter cloacae, E. cloacae 3", "value": 32, "unit": "µg/mL"},
      {"measurement": "MIC", "setting": "[2]; Enterobacter cloacae, E. cloacae 8", "value": 32, "unit": "µg/mL"},
      {"measurement": "MIC", "setting": "[2]; Enterobacter cloacae, E. cloacae 12", "value": 32, "unit": "µg/mL"},
      {"measurement": "MIC", "setting": "[2]; Enterobacter cloacae, E. cloacae 13", "value": 32, "unit": "µg/mL"},
      {"measurement": "MIC", "setting": "[2]; Enterobacter cloacae, E. cloacae 14", "value": 32, "unit": "µg/mL"},
      {"measurement": "MIC", "setting": "[2]; Enterobacter cloacae, E. cloacae 16", "value": 32, "unit": "µg/mL"},
      {"measurement": "MIC", "setting": "[2]; Enterobacter cloacae, E. cloacae 20", "value": 32, "unit": "µg/mL"},
      {"measurement": "MIC", "setting": "[2]; Enterobacter cloacae, E. cloacae 321", "value": 32, "unit": "µg/mL"},
      {"measurement": "MIC", "setting": "[2]; Enterobacter cloacae, E. cloacae 348", "value": 32, "unit": "µg/mL"},
      {"measurement": "MIC", "setting": "[2]; Enterobacter cloacae, E. cloacae 349", "value": 32, "unit": "µg/mL"},
      {"measurement": "MIC", "setting": "[2]; Enterobacter cloacae, E. cloacae 358", "value": 32, "unit": "µg/mL"},
      {"measurement": "MIC", "setting": "[2]; Enterobacter cloacae, E. cloacae 367", "value": 32, "unit": "µg/mL"},
      {"measurement": "MIC", "setting": "[2]; Enterobacter cloacae, E. cloacae 369", "value": 32, "unit": "µg/mL"},
      {"measurement": "Range (MIC)", "setting": "[2]; Enterobacteriaceae spp. strains", "value": "8 to 32", "unit": "µg/mL"},
      {"measurement": "MIC", "setting": "[2]; Escherichia coli, ATCC E. Coli 25922", "value": 16, "unit": "µg/mL"},
      {"measurement": "MIC", "setting": "[2]; Escherichia coli, E. coli 6", "value": 32, "unit": "µg/mL"},
      {"measurement": "MIC", "setting": "[2]; Escherichia coli, E. coli 15", "value": 16, "unit": "µg/mL"},
      {"measurement": "MIC", "setting": "[2]; Escherichia coli, E. coli 34", "value": 32, "unit": "µg/mL"},
      {"measurement": "MIC", "setting": "[2]; Escherichia coli, E. coli 37", "value": 8, "unit": "µg/mL"},
      {"measurement": "MIC", "setting": "[2]; Escherichia coli, E. coli 41", "value": 16, "unit": "µg/mL"},
      {"measurement": "MIC", "setting": "[2]; Escherichia coli, E. coli 43", "value": 16, "unit": "µg/mL"},
      {"measurement": "MIC", "setting": "[2]; Escherichia coli, E. coli 44", "value": 16, "unit": "µg/mL"},
      {"measurement": "MIC", "setting": "[2]; Escherichia coli, E. coli 46", "value": 16, "unit": "µg/mL"},
      {"measurement": "MIC", "setting": "[2]; Escherichia coli, E. coli 47", "value": 32, "unit": "µg/mL"},
      {"measurement": "MIC", "setting": "[2]; Escherichia coli, E. coli 48", "value": 32, "unit": "µg/mL"},
      {"measurement": "MIC", "setting": "[2]; Escherichia coli, E. coli 49", "value": 32, "unit": "µg/mL"},
      {"measurement": "MIC", "setting": "[2]; Escherichia coli, E. coli 56", "value": 32, "unit": "µg/mL"},
      {"measurement": "MIC", "setting": "[2]; Escherichia coli, E. coli 62", "value": 32, "unit": "µg/mL"},
      {"measurement": "MIC", "setting": "[2]; Escherichia coli, E. coli 71", "value": 8, "unit": "µg/mL"},
      {"measurement": "MIC", "setting": "[2]; Escherichia coli, E. coli 90", "value": 16, "unit": "µg/mL"},
      {"measurement": "MIC", "setting": "[2]; Escherichia coli, E. coli 92", "value": 32, "unit": "µg/mL"},
      {"measurement": "MIC", "setting": "[2]; Escherichia coli, E. coli 93", "value": 32, "unit": "µg/mL"},
      {"measurement": "MIC", "setting": "[2]; Escherichia coli, E. coli 95", "value": 32, "unit": "µg/mL"},
      {"measurement": "MIC", "setting": "[2]; Escherichia coli, E. coli 96", "value": 8, "unit": "µg/mL"},
      {"measurement": "MIC", "setting": "[2]; Escherichia coli, E. coli 97", "value": 32, "unit": "µg/mL"},
      {"measurement": "MIC", "setting": "[2]; Escherichia coli, E. coli 100", "value": 32, "unit": "µg/mL"},
      {"measurement": "MIC", "setting": "[2]; Escherichia coli, E. coli 102", "value": 16, "unit": "µg/mL"},
      {"measurement": "MIC", "setting": "[2]; Escherichia coli, E. coli 103", "value": 32, "unit": "µg/mL"},
      {"measurement": "MIC", "setting": "[2]; Escherichia coli, E. coli 109", "value": 32, "unit": "µg/mL"},
      {"measurement": "MIC", "setting": "[2]; Escherichia coli, E. coli 110", "value": 32, "unit": "µg/mL"},
      {"measurement": "MIC", "setting": "[2]; Escherichia coli, E. coli 112", "value": 32, "unit": "µg/mL"},
      {"measurement": "MIC", "setting": "[2]; Escherichia coli, E. coli 113", "value": 32, "unit": "µg/mL"},
      {"measurement": "MIC", "setting": "[2]; Escherichia coli, E. coli 117", "value": 16, "unit": "µg/mL"},
      {"measurement": "MIC", "setting": "[2]; Escherichia coli, E. coli 118", "value": 32, "unit": "µg/mL"},
      {"measurement": "MIC", "setting": "[2]; Escherichia coli, E. coli 120", "value": 32, "unit": "µg/mL"},
      {"measurement": "MIC", "setting": "[2]; Escherichia coli, E. coli 140", "value": 32, "unit": "µg/mL"}
    ]}
  ]
}
